From patent publication US4055553A, “(Gly3 -Ala)^1 -somatostatin” (American Home Products Corporation, priority 1975, dated 1977)

Assays:
[1] = test system: glucagon; test: arginine-stimulated hormone release in Nembutal-anaesthetised rats, blood assayed for glucagon; type: in vivo, albino male rats
Protocol: (§1) The in vivo activity of the compounds of this invention was established by subjecting (Gly3 -Ala)^1 -Somatostatin, as a representative compound of this invention, to the following standard test procedure: three groups of nine albino male rats were arranged to provide a control group, a group for observation of Somatostatin activity as the standard and a group for the study of the test compound (Gly3 -Ala)^1 -Somatostatin. Nembutal (50 mg/kg) was injected intraperitoneally into each rat. Fifteen minutes later a subcutaneous injection of the test compound, somatostatin (200 μg/kg) and physiological saline was administered separately to each of the three groups of rats. Ten minutes later 0.5 milliliters of arginine (300 mg/ml, pH 7.2) was injected into the rats heart. The rats were decapitated five minutes later and their blood was collected in Trasylol® -EDTA. Aliquot samples were assayed for growth hormone, glucagon and/or insulin. The compound of this invention, selected as representative of the group of compounds disclosed for test pruposes, was employed in two distinct test procedures at the 100 μg/kg and 300 μg/kg dose levels.

[2] = test system: insulin; test: arginine-stimulated hormone release in Nembutal-anaesthetised rats, blood assayed for insulin; type: in vivo, albino male rats
Protocol: as §1

[3] = test system: growth hormone; test: arginine-stimulated hormone release in Nembutal-anaesthetised rats, blood assayed for growth hormone; type: in vivo, albino male rats; conditions: saline control 133 ± 15
Protocol: as §1

[4] = test system: growth hormone, glucagon and/or insulin; test: standard in vivo test procedure, overall activity compared with somatostatin; design: species or system albino male rats; conditions: at the 100 and 300 μg/kg dose levels
Protocol: as §1

SMILES | Glucagon ([1]; first test, test compound 100 μg/kg subcutaneous, arginine intracardiac 10 min later, blood 5 min after arginine, saline control 6.4 ± 1.5) [picograms/ml] | Glucagon ([1]; second test, test compound 300 μg/kg subcutaneous, saline control 4.2 ± 0.6) [picograms/ml] | Insulin ([2]; first test, test compound 100 μg/kg subcutaneous, arginine intracardiac 10 min later, blood 5 min after arginine, saline control 199 ± 15) [μ units/ml] | Insulin ([2]; second test, test compound 300 μg/kg subcutaneous, saline control 165 ± 13) [μ units/ml] | GH ([3]; second test, test compound 300 μg/kg subcutaneous) [ng/mL] | activity relative to somatostatin itself [4] | Glucagon ([1]; first test (run beside the 100 μg/kg group), somatostatin standard 200 μg/kg subcutaneous, saline control 6.4 ± 1.5) [picograms/ml] | Glucagon ([1]; second test (run beside the 300 μg/kg group), somatostatin standard 200 μg/kg subcutaneous, saline control 4.2 ± 0.6) [picograms/ml] | Insulin ([2]; first test (run beside the 100 μg/kg group), somatostatin standard 200 μg/kg subcutaneous, saline control 199 ± 15) [μ units/ml] | Insulin ([2]; second test (run beside the 300 μg/kg group), somatostatin standard 200 μg/kg subcutaneous, saline control 165 ± 13) [μ units/ml] | GH ([3]; second test (run beside the 300 μg/kg group), somatostatin standard 200 μg/kg subcutaneous) [ng/mL]
C[C@H](NC(=O)CNC(=O)CNC(=O)CN)C(=O)NCC(=O)N[C@H]1CSSC[C@@H](C(=O)O)NC(=O)[C@H](CO)NC(=O)[C@H]([C@@H](C)O)NC(=O)[C@H](Cc2ccccc2)NC(=O)[C@H]([C@@H](C)O)NC(=O)[C@H](CCCCN)NC(=O)[C@H](Cc2c[nH]c3ccccc23)NC(=O)[C@H](Cc2ccccc2)NC(=O)[C@H](Cc2ccccc2)NC(=O)[C@H](CC(N)=O)NC(=O)[C@H](CCCCN)NC1=O [(Gly3 -Ala)^1 -Somatostatin, glycyl-glycyl-glycyl-L-alanylglycyl-L-cysteinyl-L-lysyl-L-asparaginyl-L-phenylalanyl-L-phenylalanyl-L-tryptophyl-L-lysyl-L-threonyl-L-phenylalanyl-L- threonyl-L-seryl-L-cysteine cyclic (6→.intg.) disulfide, triacetate] | 0.5 ± 0.1 | 1.4 ± 0.7 | 130 ± 14 | 104 ± 10 | 27 ± 7 | comparable in activity |  |  |  |  | 
C[C@H](N)C(=O)NCC(=O)N[C@H]1CSSC[C@@H](C(=O)O)NC(=O)[C@H](CO)NC(=O)[C@H]([C@@H](C)O)NC(=O)[C@H](Cc2ccccc2)NC(=O)[C@H]([C@@H](C)O)NC(=O)[C@H](CCCCN)NC(=O)[C@H](Cc2c[nH]c3ccccc23)NC(=O)[C@H](Cc2ccccc2)NC(=O)[C@H](Cc2ccccc2)NC(=O)[C@H](CC(N)=O)NC(=O)[C@H](CCCCN)NC1=O [Somatostatin] |  |  |  |  |  |  | 1.5 ± 0.8 | 1.6 ± 0.9 | 202 ± 29 | 115 ± 11 | 12 ± 2
